These results are taken from patent publication US11998544B2, “Methods of using splicing modulators” (EISAI R&D MANAGEMENT CO., LTD., priority 2018, dated 2024).

In one series the test system is CT26 syngeneic tumors. Description: Efficacy study, mouse colon cancer syngeneic model (CT26). It is filed as in vivo. As to conditions: Balb/c mice with CT26 tumors; Compound 1 at any dose level or schedule; FIG. 1A. The procedure:
Efficacy Study Protocol: Mouse Colon Cancer Syngeneic Model
CT26 colon cancer cells (0.25×10^6; ATCC Cat # CRL-2638) were implanted subcutaneously into the right flank of eight-week old female Balb/c mice (Envigo) in 100 μL of PBS lacking matrigel. CT26 tumors were allowed to grow to an average of ˜100 mm^3 before animals were enrolled onto the efficacy study. Each treatment group contained 12 mice. Mice were treated with Compound 1, an anti-CTLA4 antibody (Bio X Cell Catalog Number: BE0164 (αCTLA4 9D9)), or a combination at doses and routes of administration as shown in FIG. 1. Compound 1 was formulated in a composition containing 5% ethanol and 95% methylcellulose solution (0.5% methylcellulose. The anti-CTLA4 antibody was formulated in phosphate buffer solution at pH 7.0. Tumors were measured 3 times per week for up to 19 days. Tumor volumes were calculated using the ellipsoid formula: Tumor Volume=(length×width^2)/2

In the next series the test system is SF3b1 mutant cell lines. The following applies: previously shown, U.S. Pat. No. 9,481,669 B2 and PCT/US2016/062525, cited from earlier work.
For series [1] the following is noted: in vivo; cited from earlier work.

Take `C/C(=C\C=C\[C@@H](C)c1ccccn1)[C@H]1OC(=O)C[C@H](O)CC[C@@](C)(O)[C@@H](OC(=O)N2CCN(C)CC2)/C=C/[C@@H]1C` [Compound 1, (2S,3S,6S,7R,10R,E)-7,10-dihydroxy-3,7-dimethyl-12-oxo-2-((R,2E,4E)-6-(pyridin-2-yl)hepta-2,4-dien-2-yl)oxacyclododec-4-en-6-yl 4-methylpiperazine-1-carboxylate]: the “antitumor activity (growth curves compared to vehicle treated controls)” value in the series with CT26 syngeneic tumors is “did not result in noticeable antitumor activity”. Besides, the cellular lethality result in the series on SF3b1 mutant cell lines (SF3b1 mutant cell lines) is recorded as “cellular lethality in SF3b1 mutant cell lines”. Moreover, the splicing modulator activity result with SF3b1 mutant cell lines is recorded as “demonstrate splicing modulator activity”.

For “Ipilimumab: fully human anti-CTLA4 antibody, an IgG1”, the plasma half-life in series [1] was 12 to 14 days.

For the compound “tremelimumab: fully human anti-CTLA4 antibody, an IgG2”, the plasma half-life result in series [1] is on record as “approximately 22 days”.
